Laboratory results from BindingDB's records for patent US12209085 (Sunshine Lake Pharma Co., 2025).

Columns and labels:
Assay in all cases: Inhibitory Activity Assay
[1] = target: Coiled-coil domain-containing protein 6/Proto-oncogene tyrosine-protein kinase receptor Ret (Homo sapiens, UniProt P07949)
[2] = target: Proto-oncogene tyrosine-protein kinase receptor Ret [M918T] (Homo sapiens, UniProt P07949, M918T)
[3] = target: Proto-oncogene tyrosine-protein kinase receptor Ret [V804L] (Homo sapiens, UniProt P07949, V804L)
[4] = target: Proto-oncogene tyrosine-protein kinase receptor Ret [V804M] (Human, UniProt P07949, V804M)
[5] = target: Proto-oncogene tyrosine-protein kinase receptor Ret (Homo sapiens, UniProt P07949)
Sequence of Proto-oncogene tyrosine-protein kinase receptor Ret (P07949 whole entry): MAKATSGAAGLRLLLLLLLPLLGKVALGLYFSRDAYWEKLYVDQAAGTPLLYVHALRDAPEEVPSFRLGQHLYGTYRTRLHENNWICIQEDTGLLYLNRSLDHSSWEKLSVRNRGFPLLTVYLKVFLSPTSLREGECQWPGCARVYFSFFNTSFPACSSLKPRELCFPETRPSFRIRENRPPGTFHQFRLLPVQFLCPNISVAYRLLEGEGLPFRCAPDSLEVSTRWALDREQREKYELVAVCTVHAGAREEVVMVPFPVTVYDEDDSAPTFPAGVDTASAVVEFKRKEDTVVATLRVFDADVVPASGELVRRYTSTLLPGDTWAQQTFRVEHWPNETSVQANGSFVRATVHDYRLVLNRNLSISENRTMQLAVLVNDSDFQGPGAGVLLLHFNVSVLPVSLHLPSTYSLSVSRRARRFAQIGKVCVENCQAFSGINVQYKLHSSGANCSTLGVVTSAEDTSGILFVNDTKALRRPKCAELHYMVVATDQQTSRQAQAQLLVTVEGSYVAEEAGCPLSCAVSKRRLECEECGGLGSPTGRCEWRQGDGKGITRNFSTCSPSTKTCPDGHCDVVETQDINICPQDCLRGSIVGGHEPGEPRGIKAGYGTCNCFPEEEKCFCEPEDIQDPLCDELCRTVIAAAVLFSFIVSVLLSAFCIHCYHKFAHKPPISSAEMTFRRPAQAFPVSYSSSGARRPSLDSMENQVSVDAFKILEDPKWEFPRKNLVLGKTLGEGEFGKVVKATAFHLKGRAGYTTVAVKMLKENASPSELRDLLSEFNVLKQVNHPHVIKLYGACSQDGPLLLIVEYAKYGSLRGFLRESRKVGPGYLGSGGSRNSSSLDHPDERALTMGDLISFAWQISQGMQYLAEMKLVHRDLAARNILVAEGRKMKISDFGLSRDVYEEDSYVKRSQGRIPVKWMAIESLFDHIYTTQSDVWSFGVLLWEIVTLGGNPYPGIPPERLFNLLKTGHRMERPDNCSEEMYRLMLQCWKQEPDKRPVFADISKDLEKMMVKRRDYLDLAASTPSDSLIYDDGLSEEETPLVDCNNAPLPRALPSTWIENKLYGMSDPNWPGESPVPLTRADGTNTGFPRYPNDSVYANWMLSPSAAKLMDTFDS

Sequence of Proto-oncogene tyrosine-protein kinase receptor Ret [V804M] (P07949 29-1114 V804M limits assumed): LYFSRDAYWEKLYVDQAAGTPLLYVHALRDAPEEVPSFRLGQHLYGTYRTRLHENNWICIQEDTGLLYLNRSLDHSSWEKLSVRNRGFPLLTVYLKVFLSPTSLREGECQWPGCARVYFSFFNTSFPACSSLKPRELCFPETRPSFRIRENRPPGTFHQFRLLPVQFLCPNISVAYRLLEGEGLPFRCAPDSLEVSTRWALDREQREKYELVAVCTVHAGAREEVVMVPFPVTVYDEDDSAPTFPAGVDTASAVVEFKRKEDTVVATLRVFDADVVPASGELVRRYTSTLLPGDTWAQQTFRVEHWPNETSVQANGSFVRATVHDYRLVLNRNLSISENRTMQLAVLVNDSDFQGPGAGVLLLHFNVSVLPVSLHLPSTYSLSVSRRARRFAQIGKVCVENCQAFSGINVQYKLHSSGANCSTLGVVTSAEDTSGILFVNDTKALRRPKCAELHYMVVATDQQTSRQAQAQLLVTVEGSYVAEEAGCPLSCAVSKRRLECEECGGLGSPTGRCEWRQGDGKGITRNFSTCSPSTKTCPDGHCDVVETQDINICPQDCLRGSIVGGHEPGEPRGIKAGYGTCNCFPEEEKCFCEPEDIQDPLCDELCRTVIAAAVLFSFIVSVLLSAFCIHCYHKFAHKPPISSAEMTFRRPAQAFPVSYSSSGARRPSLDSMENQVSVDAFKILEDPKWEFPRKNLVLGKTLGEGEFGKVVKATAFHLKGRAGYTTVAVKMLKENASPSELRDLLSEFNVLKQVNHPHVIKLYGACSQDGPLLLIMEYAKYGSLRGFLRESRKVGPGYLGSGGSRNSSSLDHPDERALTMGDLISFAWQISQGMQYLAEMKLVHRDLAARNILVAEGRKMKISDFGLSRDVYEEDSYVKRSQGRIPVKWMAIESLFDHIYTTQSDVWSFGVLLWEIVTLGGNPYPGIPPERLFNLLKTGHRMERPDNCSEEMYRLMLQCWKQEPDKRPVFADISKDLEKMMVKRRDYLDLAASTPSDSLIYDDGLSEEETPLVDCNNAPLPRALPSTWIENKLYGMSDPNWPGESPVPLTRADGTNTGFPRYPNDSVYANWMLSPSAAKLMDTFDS
Sequence of Proto-oncogene tyrosine-protein kinase receptor Ret [M918T] (P07949 29-1114 M918T limits assumed): as the sequence (P07949 29-1114 V804M limits assumed) above, with M776V, M890T counted along it
Sequence of Proto-oncogene tyrosine-protein kinase receptor Ret [V804L] (P07949 29-1114 V804L limits assumed): as the sequence (P07949 29-1114 V804M limits assumed) above, with M776L counted along it
Sequence of Coiled-coil domain-containing protein 6/Proto-oncogene tyrosine-protein kinase receptor Ret (P07949 whole entry, the tested form may be a part): as the sequence (P07949 whole entry) above
Sequence of Coiled-coil domain-containing protein 6/Proto-oncogene tyrosine-protein kinase receptor Ret (Q16204 whole entry, further chain, the tested form may be a part): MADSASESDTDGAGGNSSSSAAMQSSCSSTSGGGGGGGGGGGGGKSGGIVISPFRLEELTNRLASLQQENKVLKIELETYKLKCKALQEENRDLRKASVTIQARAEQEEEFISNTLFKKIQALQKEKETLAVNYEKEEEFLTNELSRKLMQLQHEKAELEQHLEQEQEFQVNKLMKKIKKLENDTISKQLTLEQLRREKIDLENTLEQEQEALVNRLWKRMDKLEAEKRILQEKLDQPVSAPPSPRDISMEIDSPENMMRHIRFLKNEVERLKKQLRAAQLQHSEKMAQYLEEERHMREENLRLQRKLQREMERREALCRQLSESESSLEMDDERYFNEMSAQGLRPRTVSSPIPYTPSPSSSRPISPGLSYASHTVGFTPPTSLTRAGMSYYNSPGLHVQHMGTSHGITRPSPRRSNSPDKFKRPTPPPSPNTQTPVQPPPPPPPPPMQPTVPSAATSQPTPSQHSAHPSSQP

| SMILES | IC50 [1] [nM] | IC50 [2] [nM] | IC50 [3] [nM] | IC50 [4] [nM] | IC50 [5] [nM] |
| --- | --- | --- | --- | --- | --- |
| C#Cc1cccc(C(=O)NC2CCN(c3ccc(-c4cc(-c5cnn(C)c5)cn5ncc(C#N)c45)cn3)CC2)c1 [US12209085, Example 268] | 3.16 | 1.92 | 2.35 | 30.8 | 2.69 |
| C#Cc1ncc(CN2C3CC2CN(c2ccc(-c4cc(-c5cnn(C)c5)cn5ncc(C#N)c45)cn2)C3)cc1F [US12209085, Example 227] | – | – | – | 0.3 | 0.13 |
| C#CC#CCN1C2CC1CN(c1ccc(-c3cc(-c4cnn(C)c4)cn4ncc(C#N)c34)cn1)C2 [US12209085, Example 276] | – | – | – | 1.08 | 0.39 |
| C#Cc1ccc(CN2C3CC2CN(c2ccc(-c4cc(-c5cnn(C)c5)cn5ncc(C#N)c45)cn2)C3)cn1 [US12209085, Example 186] | – | – | – | 0.76 | 0.17 |
